Results: PubChem BioAssay (NCI)
Where “and” joins values, the source holds several entries; their conditions need not be identical. Identical values can stand only once.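 A five-concentration, 48-hour dose response in 96-well plates underlies each endpoint, interpolated linearly between surrounding concentrations. The concentration for 50% growth inhibition is given as GI50. Definition used: TGI = concentration required for complete inhibition of growth.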

How the values were obtained:
Assay in all cases: growth of human tumour cells (NCI), 48 h
[1] = test system: A549 NSCLC
[2] = test system: HCC-2998 colon
[3] = test system: KM20L2 colon
[4] = test system: LXFL 529 NSCLC
[5] = test system: SN12C renal
[6] = test system: SW-620 colon
[7] = test system: UO-31 renal
[8] = test system: EKVX NSCLC
[9] = test system: HOP-92 NSCLC
[10] = test system: HS 578T breast

| SMILES | TGI [1] | TGI [2] | TGI [3] | TGI [4] | TGI [5] | TGI [6] | TGI [7] | TGI [8] | TGI [9] | GI50 [1] | GI50 [8] | GI50 [2] | GI50 [9] | GI50 [10] | TGI [10] | GI50 [5] | GI50 [6] | GI50 [7] |
| --- | --- | --- | --- | --- | --- | --- | --- | --- | --- | --- | --- | --- | --- | --- | --- | --- | --- | --- |
| Cc1ccc(S(=O)(=O)NC2(C=O)CCCC3CCCCC32)cc1 (stereo not drawn) | > 100 µM | > 100 µM | > 100 µM | > 100 µM | > 100 µM | > 100 µM | > 100 µM | – | – | – | – | – | – | – | – | – | – | – |
| CC(=O)C1C(c2ccc(N(C)C)cc2)c2cc3c(cc2OC1(C)O)OCO3 (stereo not drawn) | > 100 µM | – | 26.6 µM | – | > 100 µM | > 100 µM | > 100 µM | > 100 µM | 55.4 µM | – | – | – | – | – | – | – | – | – |
| CCN(CC)CC(O)CNc1c2ccc([N+](=O)[O-])cc2nc2cc(OC)c(OC)cc12 (stereo not drawn) | 0.854 µM | 0.576 µM | – | – | 2.79 µM | 2.37 µM | 12.9 µM | 1.85 µM | 0.642 µM | 0.262 µM | 0.336 µM | 0.24 µM | 0.164 µM | 0.728 µM | 5.09 µM | 0.335 µM | 0.289 µM | 2.21 µM |
| O=C(Nc1ccncc1)C(=O)c1cn(S(=O)(=O)c2ccc(Cl)cc2)c2ccccc12 | > 100 µM | > 100 µM | – | – | > 100 µM | > 100 µM | > 100 µM | > 100 µM | 19.9 µM | 17.5 µM | 2.62 µM | 10.3 µM | 1.12 µM | 11.2 µM | > 100 µM | 2.02 µM | 1.35 µM | 9.18 µM |
| COc1cc(N(C)C)c(OC)cc1/C=C\c1ccnc2ccccc12 | > 10 µM | > 10 µM | – | – | > 10 µM | > 10 µM | > 10 µM | > 10 µM | 9.42 µM | – | – | – | – | – | > 10 µM | – | – | – |
| S=C(Nc1ccc(-c2nc3ccccc3[nH]2)cc1)Nc1ccc(-c2nc3ccccc3[nH]2)cc1 | > 100 µM | > 100 µM | – | – | > 100 µM | > 100 µM | > 100 µM | > 100 µM | > 100 µM | > 100 µM | > 100 µM | 45.8 µM | > 100 µM | > 100 µM | > 100 µM | 47.7 µM | > 100 µM | 31.7 µM |
| O=C(NCCCO)c1cc(Cl)ccc1O | 14 µM | 14.3 µM | – | – | 11.7 µM | 14.3 µM | 11.3 µM | 18.1 µM | 3.37 µM | 3.24 µM | 2 µM | 3.1 µM | 0.468 µM | 3.98 µM | 21.4 µM | 1.89 µM | 2.94 µM | 2.98 µM |
| C=CC(=O)Nc1cc(C)ccc1Nc1nc(Nc2cc(OC)ncc2C)ncc1C(F)(F)F | 4.59 µM | 4.34 µM | – | – | > 100 µM | 3.23 µM | 2.27 µM | 3.1 µM | 0.981 µM | 1.02 µM | 0.438 µM | 0.261 µM | 0.188 µM | 0.869 µM | 4.86 µM | 0.714 µM | 0.322 µM | 0.214 µM |
| CCC(=C/[C@H](C)C/C=C/C(C)=C/[C@@H](C)C(=O)[C@@H](C)[C@H](O)[C@@H](C)CC)/C=C/[C@@H]1OC(=O)C=C[C@H]1C | 1.86 µM | < 0.01 µM | – | – | 1.41 µM | 1.43 µM | – | 13 µM | < 0.01 µM | < 0.01 µM | < 0.01 µM | < 0.01 µM | < 0.01 µM | < 0.01 µM | 1.95 µM | < 0.01 µM | < 0.01 µM | < 0.01 µM |
| CC(C)=CCC/C(C)=C/CC/C(C)=C/CSc1ccccc1C(=O)O | > 89.4 µM and 43.3 µM | 92.4 µM and 33.6 µM | – | – | 56.4 µM and 51.9 µM | 42.5 µM and > 100 µM | 37.1 µM | > 84.9 µM and 45.1 µM | 57.1 µM and 59.7 µM | 28.9 µM | 29.8 µM | 28.9 µM | 19.3 µM | 33 µM | > 100 µM and 44.5 µM | – | 20.1 µM | 17.7 µM |
| COc1ccc2ccccc2c1C1NC(=O)c2ccccc2N1 (stereo not drawn) | > 51.8 µM | 5.92 µM | – | – | > 82.6 µM | > 37.5 µM | 71.2 µM | > 100 µM | > 80.6 µM | – | – | – | – | – | > 31.3 µM | – | – | – |
| Cc1nnc(-c2cccc(-c3ccc(C(=O)NCC4CC4)cc3)c2)o1 | > 25 µM | > 25 µM | – | – | > 25 µM | > 25 µM | > 25 µM | > 25 µM | > 25 µM | > 25 µM | > 25 µM | > 25 µM | > 25 µM | > 25 µM | > 25 µM | > 25 µM | > 25 µM | > 25 µM |
| O=c1[nH]c(=S)[nH]c2c1CN(CCCN1CCOCC1)CN2 | > 100 µM | 73.3 µM | – | – | > 100 µM | > 100 µM | > 100 µM | > 100 µM | > 100 µM | – | – | – | – | – | > 100 µM | – | – | – |
| CC(=O)OC(C)(C)/C(C)=C/C(=O)O[C@H]1C(=O)O[C@@H]2C[C@H]3[C@H](C)C(=O)C(O[C@@H]4O[C@H](CO)[C@@H](O)[C@H](O)[C@H]4O)=C[C@]3(C)[C@H]3[C@@H](O)[C@H](O)[C@@]4(C(=O)O)OC[C@]32[C@@H]14 | > 100 µM | > 100 µM | – | – | > 100 µM | > 100 µM | > 100 µM | > 100 µM | > 100 µM | > 100 µM | > 100 µM | 36.5 µM | 65.7 µM | > 100 µM | > 100 µM | > 100 µM | > 100 µM | > 100 µM |
| COc1cc(C(=O)N2CCN(c3ncnc4ccccc34)CC2)c(N)cc1OCc1ccccc1 | 50.5 µM | 30.3 µM | – | – | 32.3 µM | 23.5 µM | 26.5 µM | 48.5 µM | 36.3 µM | 16.5 µM | 22.5 µM | 16.6 µM | 15.4 µM | 17.1 µM | 55.7 µM | 18.3 µM | 11.4 µM | 12 µM |
| C#CCSc1cc(Cl)c(C)cc1S(=O)(=O)Nc1nc2ccccc2o1 | > 100 µM | 48.3 µM | – | – | > 100 µM | > 100 µM | 52.8 µM | > 100 µM | 51.3 µM | 31.8 µM | 43.4 µM | 22.5 µM | 17.9 µM | 44.2 µM | > 100 µM | 43.5 µM | 46.7 µM | 23.8 µM |
| COCc1cc(C(=O)Nc2cc([C@H]3CC[C@@H](OC(=O)NC(C)C)C3)[nH]n2)n(C)n1 | > 100 µM | 48.2 µM | – | – | > 100 µM | 74.7 µM | 58.6 µM | 85.8 µM | 36.6 µM | 13 µM | 19.1 µM | 5.39 µM | 8.03 µM | 11.7 µM | 85.3 µM | 9.58 µM | 4.32 µM | 16 µM |
